Measured values published in article PMC8151276, “An Integrated Approach toward NanoBRET Tracers for Analysis of GPCR Ligand Engagement” (Molecules, 2021).

Experiments:
[1] = target: T1, GALR1 (Homo sapiens, UniProt P47211); test: NanoBRET screen HiBiT-GALR1 in HEK293; assay type: binding
T1 construct: purchased Promega (in-house HiBiT-GPCR construct library, NanoBRET)
T1 sequence (P47211 1-349): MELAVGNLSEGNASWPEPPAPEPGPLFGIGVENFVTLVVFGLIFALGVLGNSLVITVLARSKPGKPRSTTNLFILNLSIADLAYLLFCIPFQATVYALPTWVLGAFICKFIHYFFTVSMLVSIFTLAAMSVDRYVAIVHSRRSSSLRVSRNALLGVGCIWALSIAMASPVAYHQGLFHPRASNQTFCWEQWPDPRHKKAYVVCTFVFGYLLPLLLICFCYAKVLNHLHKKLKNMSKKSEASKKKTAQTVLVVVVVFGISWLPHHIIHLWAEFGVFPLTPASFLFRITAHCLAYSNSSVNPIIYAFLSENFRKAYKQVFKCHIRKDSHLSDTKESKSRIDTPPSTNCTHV
Protocol: (§1) Each tracer candidate was screened across the entire library of HiBiT-GPCR constructs using NanoBRET as the detection modality. As depicted in Figure 4A, the specificity of interactions was evaluated through decrease in BRET due to competitive displacement of a bound tracer by excess parental compound. Each tracer was analyzed for binding to each HiBiT-GPCR fusion in the absence and in the presence of competing parental compound. Briefly, HEK293 cells were transfected with HiBiT-GPCR constructs diluted into promoterless DNA to reduce expression and maximize translocation to the cell surface. Each tracer candidate was then screened at concentrations of 1 μM and 0.1 μM across cells expressing these fusions. Cells were treated for 1.5 h with tracer either alone or in the presence of 20 μM competing parental compound (i.e., control). BRET was measured upon addition of purified LgBiT and subsequent complementation with HiBiT genetically fused to a GPCR. The specificity of interactions was assessed through a decrease in BRET signal due to competitive displacement of the bound tracer. To further gauge the robustness of these interactions, the fold response over the control (i.e., BRETtracer/BRETcontrol) was calculated. We chose a 1.5-fold response, which translates to ≥7-fold signal over noise as the minimal threshold required to score an interaction as positive. […]. Below we highlight the screening results obtained for our exemplary fluorescent tracers based on Clozapine, Amitriptyline and AZD1283.
(§2) HiBiT-GPCR DNA constructs were diluted in 10 mM Tris pH 8 to a final concentration of 0.01 μg/μL, arrayed in 96-well plates and stored at −20 °C. For transfection, HEK293 cells were suspended in Opti-MEM (without phenol red) supplemented with 2% fetal bovine serum (Seradigm) and 100 units/mL penicillin–streptomycin (Gibco) at a final concentration of 220,000 cells/mL and dispensed into white 96-well plates at 90 μL/well. Subsequent transfections and screens were carried using an Agilent Bravo Automated Liquid Handling Platform. First, the 96-well HiBiT DNA arrays were diluted 25-fold in Opti-MEM (without serum or phenol red) to a final concentration of 0.0004 μg/μL and 20 μL of the diluted DNAs were transferred into new 96-well plates. Next, promoterless carrier DNA (1 μg/μL) was diluted 25-fold (0.04 μg/μL) and then dispensed into the diluted arrays at 20 μL/well. Following brief mixing, Viafect transfection reagent (Promega) diluted 16-fold into Opti-MEM was dispensed into the plates at 40 μL/well. After mixing by pipetting, plates were incubated for 10 min on the pipetting station deck. The DNA-transfection reagent complexes were then added to plates containing cells. To facilitate the screen, 10 μL of DNA-transfection reagent complexes were added in duplicates to the top 4 and bottom 4 rows, resulting in two identical 48-well arrays per plate. Plates with transfected cells were incubated for 18–20 h at 37 °C/5% CO2. A screen of each tracer across the entire library using two different concentrations requires duplicate plates of transfected cells. Depending on the number of tracers being screened, transfections can be scaled up using the same ratios. The next day, for each tracer, four 20× screening solutions in tracer dilution buffer (Promega) were prepared: two duplicates at final concentration of 20 μM and two duplicates at a final concentration of 2 μM. A competing unmodified compound was added to one of each duplicate at a final concentration of 400 μM. The four resulting solutions were diluted 4-fold in Opti-MEM without serum or phenol red to generate 5× solutions (5 µM and 0.5 µM tracer +/− 100 μM competing compound). To screen the library, a BioTek MultiFlo FX liquid dispenser was used to dispense 22.5 µL of tracer solution to the top 4 rows and 22.5 µL tracer + competing compound solution to the 4 bottom rows. Plates were briefly mixed on an orbital shaker and incubated for 1.5 h at room temperature. […]

[2] = target: T2, HTR4 (Homo sapiens, UniProt Q13639); test: NanoBRET screen HiBiT-HTR4 in HEK293; assay type: binding
T2 construct: purchased Promega (in-house HiBiT-GPCR construct library, NanoBRET)
Protocol: as §1, §2

T2 sequence (Q13639 whole entry): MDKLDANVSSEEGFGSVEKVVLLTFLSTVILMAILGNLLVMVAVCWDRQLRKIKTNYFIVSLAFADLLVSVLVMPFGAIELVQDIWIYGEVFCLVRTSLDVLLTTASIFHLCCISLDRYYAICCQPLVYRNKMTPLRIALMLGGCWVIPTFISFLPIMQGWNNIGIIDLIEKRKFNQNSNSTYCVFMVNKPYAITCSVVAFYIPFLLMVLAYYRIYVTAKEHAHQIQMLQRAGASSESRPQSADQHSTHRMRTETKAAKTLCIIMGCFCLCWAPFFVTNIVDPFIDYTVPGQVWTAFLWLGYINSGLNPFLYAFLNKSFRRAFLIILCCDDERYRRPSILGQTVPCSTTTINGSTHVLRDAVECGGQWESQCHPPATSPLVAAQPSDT

COc1ccc2c(n1)c(CCNC(C)=O)cn2CCNC(=O)CCc1ccc2n1[B-](F)(F)[N+]1=C(c3ccc[nH]3)C=CC1=C2 [Azamelatonin-1-NB590]
NanoBRET Fold Response ([1]; 0.1μM tracer): 1.06 | NanoBRET Fold Response ([1]; 1μM tracer): 1.00 | NanoBRET Fold Response ([2]; 0.1μM tracer): 0.95 | NanoBRET Fold Response ([2]; 1μM tracer): 1.02
